Patent US6525059B1, “Substituted pyrazoles as p38 kinase inhibitors” (G. D. Searle & Company, priority 1998, dated 2003)
Like-named read-outs stand apart in the source and are kept apart here.

Assays:
[1] = tested on: human TNF; experiment: TNF inhibition: human whole blood assay; assay type: cell-based; details: Homo sapiens, LPS, read-out: TNF Inhibition-Human Whole Blood Assay
[2] = target: T1, human GST-p38 kinase alpha (Homo sapiens, UniProt Q16539); experiment: p38 kinase in vitro assay, second format, phosphorylation of EGFRP with 33P-ATP; assay type: biochemical; details: read-out: p38α Kinase Assay IC50
T1 construct: The coding region of the human p38a cDNA was obtained by PCR-amplification from RNA isolated from the human monocyte cell line THP.1; made in house; host or cells: E. coli DH10B
Method in brief: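 Activated human GST-p38α (pre-activated with GST-MKK6, 1 h, 30 °C) phosphorylates EGFR 21-mer peptide (200 μM) with 50 μM ATP plus γ-33P-ATP, pH 7.5, 60 min at room temperature. Unreacted ATP removed by AG 1×8 resin; supernatant scintillation-counted.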

[3] = tested on: TNF-α; experiment: Rat assay: LPS-challenged rats, serum TNF-α by ELISA; assay type: in vivo; details: Rattus norvegicus, po; for inhibition in vivo at 20 mg/kg: Table 10, dose 20.0 mg/kg
[4] = Table 10, dose 5.0 mg/kg, read-out: Rat LPS Assay % Inhibition

T1 sequence (Q16539 whole entry): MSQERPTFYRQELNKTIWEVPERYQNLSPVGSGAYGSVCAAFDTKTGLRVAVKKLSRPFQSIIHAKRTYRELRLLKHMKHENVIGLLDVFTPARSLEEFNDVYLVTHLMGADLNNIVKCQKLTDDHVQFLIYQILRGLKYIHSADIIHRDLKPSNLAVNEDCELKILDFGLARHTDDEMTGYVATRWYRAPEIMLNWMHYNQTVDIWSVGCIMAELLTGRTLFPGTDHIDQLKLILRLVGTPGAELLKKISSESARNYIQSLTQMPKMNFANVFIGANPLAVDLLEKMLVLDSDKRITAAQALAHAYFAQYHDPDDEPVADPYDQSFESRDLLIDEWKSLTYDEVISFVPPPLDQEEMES

Row | Structure (SMILES) | melting point | IC50 ([1]; Table 10, human whole blood) [µM] | IC50 ([2]; Table 10, 10% DMSO, @ 1.0 hour) [µM] | also measured
1 | CN(C)CCCNC(=O)CSc1[nH]nc(-c2ccc(Cl)cc2)c1-c1ccncc1 [Example A-463] | 168.8 to 169.5 °C | > 25 | 1.66 | 
2 | CN1CCN(c2[nH]nc(-c3ccc(Br)cc3)c2-c2ccncc2)CC1 [Example A-439] | 270.2 to 270.7 °C | 5.63 | 0.15 | inhibition in vivo at 5 mg/kg [3, 4]: 58%; inhibition in vivo at 20 mg/kg [3]: 93%
3 | COc1ccc(-c2n[nH]c(N3CCN(C)CC3)c2-c2ccncc2)cc1 [Example A-415] | 259 to 260.2 °C | 0.51 |  | inhibition in vivo at 5 mg/kg [3, 4]: 17%; inhibition in vivo at 84 mg/kg ([3]; Table 10, dose […]): 84%
4 | Cc1ccc(-c2[nH]nc(N3CCN(C)CC3)c2-c2ccncc2)cc1 [Example A-416, 1-[5-(4-methylphenyl)-4-(4-pyridinyl)-1H-pyrazol-3-yl]-4-methylpiperazine] | 243 to 246.8 °C | 5.07 | 0.041 | 
5 | Fc1ccc(-c2n[nH]c(SCC3OCCO3)c2-c2ccncc2)cc1 [Example A-451] | 202.1 to 205.4 °C | 15 | 0.078 | 
6 | C#CCN1CCN(c2n[nH]c(-c3ccc(Cl)cc3)c2-c2ccncc2)CC1 [Example A-333, 1-[5-(4-chlorophenyl)-4-(4-pyridinyl)-1H-pyrazol-3-yl]-4-(2-propynyl)piperazine] | 247 °C (dec.) |  |  | inhibition in vivo at 5 mg/kg ([3]; Table 8, dose 5.0 mg/kg, read-out: Rat LPS Assay % Inhibition): 69%; IC50 ([1]; Table 8, human whole blood): 0.585 µM; IC50 ([2]; Table 8, 10% DMSO): 0.052 µM
7 | COCCSc1[nH]nc(-c2ccc(Cl)cc2)c1-c1ccncc1 [Example A-469, 3-(4-chlorophenyl)-5-[(2-methoxyethyl)-thio]-4pyridin-4-yl-pyrazole] | 189.2 to 190.2 °C | 7.17 | 0.095 | inhibition in vivo at 5 mg/kg [3, 4]: 51%; inhibition in vivo at 20 mg/kg [3]: 68%
8 | C[S+]([O-])c1[nH]nc(-c2ccc(F)cc2)c1-c1ccncc1 (stereo not drawn) [Example A-436] | 262.9 °C | 4.61 | 2.81 | 
9 | Cc1cc(C(=O)C(=C2SCS2)c2ccncc2)ccc1Br [Example A-405] | 167.1 to 167.5 °C | > 25 | 4.85 | 
10 | C=CCSc1[nH]nc(-c2ccc(Cl)cc2)c1-c1ccncc1 [Example A-479] | 207.3 to 208.1 °C | 2.97 | 0.072 | 
11 | Cc1ccc(C(=O)C(=C2SCS2)c2ccncc2)cc1 [Example A-400] | 209.1 to 215.1 °C | > 25 | 4.77 | 
12 | C#CCSc1[nH]nc(-c2ccc(Cl)cc2)c1-c1ccncc1 [Example A-478] | 212.7 to 213.2 °C | 0.49 | 0.18 | 
13 | CC(C)(C)OC(=O)NCCOc1[nH]nc(-c2ccc(Cl)cc2)c1-c1ccncc1 [Example A-445] | > 300 °C | > 25 | 1.08 | 
14 | O=C1CN(Cc2ccccc2)CC(=O)N1c1[nH]nc(-c2ccc(Cl)cc2)c1-c1ccncc1 [Example A-428] | > 300 °C | 0.68 | 0.4 | 
15 | COc1ccc(CSc2[nH]nc(-c3ccc(F)cc3)c2-c2ccncc2)cc1 [Example A-452] | 214.7 to 215.8 °C | 0.24 | 2.87 | 
16 | CCc1ccc(C(=O)C(=C2SCS2)c2ccncc2)cc1 [Example A-404] | 174.8 to 175 °C | > 25 | 4.13 | 
17 | CNC(=O)CSc1[nH]nc(-c2ccc(Cl)cc2)c1-c1ccncc1 [Example A-462] | 284 to 288.4 °C | > 25 | 1.66 | 
18 | NCCSc1[nH]nc(-c2ccc(Cl)cc2)c1-c1ccncc1 [Example A-480] | 186.8 to 187.8 °C | 0.16 |  | 

Row | Structure (SMILES) | melting point | IC50 ([1]; Table 10, human whole blood) [µM] | IC50 ([2]; Table 10, 10% DMSO, @ 1.0 hour) [µM] | also measured
19 | CN1CCC(Sc2[nH]nc(-c3ccc(Cl)cc3)c2-c2ccncc2)CC1 [Example A-468, 3-(4-chlorophenyl)-5-[(1-methylpiperidin-4-yl)-thio]-4-pyridin-4-yl-1H-pyrazole] | 227.7 °C |  | 0.3 | inhibition in vivo at 1 mg/kg ([3]; Table 10, dose 1.0 mg/kg, read-out: Rat LPS Assay % Inhibition): 46%; inhibition in vivo at 5 mg/kg [3, 4]: 50%; inhibition in vivo at 20 mg/kg [3]: 94%
20 | C=Cc1ccc(C(=O)C(=C2SCS2)c2ccncc2)cc1 [Example A-403] | 176.6 to 176.7 °C | > 25 | 4.89 | 
21 | N#Cc1cccc(C(=O)C(=C2SCS2)c2ccncc2)c1 [Example A-406] | 168.6 to 168.7 °C | > 25 | 7.24 | 
22 | CN1CCN(c2n[nH]c(-c3ccc(C#N)cc3)c2-c2ccncc2)CC1 [Example A-412, 1-[5-(4-cyanophenyl)-4-(4-pyridinyl)-1H-pyrazol-3-yl]-4-methylpiperazine] | > 300 °C |  | 2.15 | inhibition in vivo at 5 mg/kg [3, 4]: 0%; inhibition in vivo at 20 mg/kg [3]: 0%
23 | N#CCCCSc1[nH]nc(-c2ccc(Cl)cc2)c1-c1ccncc1 [Example A-475] | 216.7 to 216.9 °C | 5.11 | 0.28 | 
24 | Clc1ccc(-c2n[nH]c(SCCc3c[nH]c4ccccc34)c2-c2ccncc2)cc1 [Example A-481] | 211.9 to 213.2 °C | > 25 | 0.2 | 
25 | COC(=O)CSc1[nH]nc(-c2ccc(Cl)cc2)c1-c1ccncc1 [Example A-457] | 192.8 to 195.2 °C | > 25 | 0.4 | 
26 | Cc1cc(-c2[nH]nc(N3CCN(C)CC3)c2-c2ccncc2)ccc1Br [Example A-420, 1-[5-(4-bromo-3-methylphenyl)-4-(4-pyrdinyl)-1H-pyrazol-3-yl]-4-methylpiperazine] | 294.7 °C (dec.) |  | 0.32 | inhibition in vivo at 5 mg/kg [3, 4]: 47%; inhibition in vivo at 20 mg/kg [3]: 91%
27 | Clc1ccc(-c2n[nH]c(SCCOC3CCCCO3)c2-c2ccncc2)cc1 (stereo not drawn) [Example A-474] | 163.2 to 163.5 °C | 0.97 |  | inhibition in vivo at 20 mg/kg [3]: 59%
28 | Clc1ccc(-c2n[nH]c(OC3CCOC3)c2-c2ccncc2)cc1 (stereo not drawn) [Example A-443] | > 300 °C | 4.89 | 0.47 | 
29 | CC(C)(C)OC(=O)N1CCC(Sc2[nH]nc(-c3ccc(Cl)cc3)c2-c2ccncc2)CC1 [Example A-458] | 220.9 to 221 °C | > 25 | 8.7 | 
30 | CC(C)(C)c1ccc(C(=O)C(=C2SCS2)c2ccncc2)cc1 [Example A-398] | 172.1 to 173.1 °C | > 25 | 45.6 | 
31 | O=C1OCCC1CSc1[nH]nc(-c2ccc(Cl)cc2)c1-c1ccncc1 (stereo not drawn) [Example A-472] | 224.2 to 225.9 °C | > 25 |  | 
32 | CN1CCN(c2[nH]nc(-c3ccc(OC(F)(F)F)cc3)c2-c2ccncc2)CC1 [Example A-411, 1-[5-(4-trifluoromethoxyphenyl)-4-(4-pyridinyl)-1H-pyrazol-3-yl]-4-methylpiperazine] | 221 to 221.2 °C |  | 3.37 | inhibition in vivo at 5 mg/kg [3, 4]: 40%; inhibition in vivo at 20 mg/kg [3]: 0%
33 | O=C(C(=C1SCS1)c1ccncc1)c1ccc(Cl)cc1 [Example A-390] | 185.3 to 185.4 °C | > 25 | 15.1 | 
34 | COc1[nH]nc(-c2ccc(Cl)cc2)c1-c1ccncc1 [Example A-446] | 265.3 °C | 3.38 | 0.9 | 
35 | N#CCCSc1[nH]nc(-c2ccc(Cl)cc2)c1-c1ccncc1 [Example A-483] | 205.7 to 206.5 °C | 0.51 | 0.3 | 
